Measured values reported in patent publication US20220041606A1, “POSITIVE ALLOSTERIC MODULATORS OF THE MUSCARINIC ACETYLCHOLINE RECEPTOR M1” (Vanderbilt University, priority 2020, published 2022).

Experiments:
[1] = molecular target: T1, human mAChR M1 (Homo sapiens, UniProt P11229); test: mAChR M1 cell-based functional assay (calcium mobilization), agonist activity upon compound addition; details: CHO-K1 cells expressing hM1; for EC50: compound alone, before acetylcholine addition; for Emax: relative to the maximum for acetylcholine
T1 construct: host or cells: CHO-K1 cells (ATCC), stably transfected using Lipofectamine2000
T1 sequence (P11229 1-460): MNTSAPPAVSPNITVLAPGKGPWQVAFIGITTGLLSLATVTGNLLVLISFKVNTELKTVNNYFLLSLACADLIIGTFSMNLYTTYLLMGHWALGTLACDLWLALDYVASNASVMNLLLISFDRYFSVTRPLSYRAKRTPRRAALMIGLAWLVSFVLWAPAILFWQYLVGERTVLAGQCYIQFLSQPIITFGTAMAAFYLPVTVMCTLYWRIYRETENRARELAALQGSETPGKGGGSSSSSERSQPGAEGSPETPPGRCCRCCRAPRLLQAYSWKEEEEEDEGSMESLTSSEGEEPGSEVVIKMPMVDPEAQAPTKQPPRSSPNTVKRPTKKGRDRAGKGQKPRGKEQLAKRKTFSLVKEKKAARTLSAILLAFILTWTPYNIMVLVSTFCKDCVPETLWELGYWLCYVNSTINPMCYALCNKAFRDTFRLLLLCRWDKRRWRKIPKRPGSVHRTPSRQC
Source text: (§1) Chinese hamster ovary (CHO-K1) cells stably expressing rat (r)M1 were purchased from the American Type Culture Collection and cultured according to their indicated protocol. CHO cells stably expressing human (h)M2, hM3, and hM5 were described previously (Levey, et al., 1991); hM1 and hM4 cDNAs were purchased from Missouri S&T cDNA Resource; rM4 cDNA was provided by T. L. Bonner (National Institutes of Health, Bethesda, MID). rM2 and rM3 were cloned from a rat brain cDNA library and sequence verified. hM1, rM2, rM3, hM4, and rM4 cDNAs were used to stably transfect CHO-K1 cells purchased from the American Type Culture Collection using Lipofectamine2000. To make stable rM2, hM2, rM3, hM4, and rM4 cell lines for use in calcium mobilization assays, these cells also were stably transfected with a chimeric G-protein (Gqi5) (provided by B. R. Conklin, University of California, San Francisco) using Lipofectamine 2000. rM1, hM1, rM3, hM3, rM5, and hM5 cells were grown in Ham's F-12 medium containing 10% heat-inactivated fetal bovine serum (FBS), 20 mM HEPES, and 50 μg/mL G418 sulfate. rM2-Gq15, hM2-Gqi5, and hM4-Gqi5 cells were grown in the same medium also containing 500 μg/mL Hygromycin B. Stable rM4-Gqi5 cells were grown in DMEM containing 10% heat-inactivated FBS, 20 mM HEPES, 400 μg/mL G418 sulfate, and 500 μg/mL Hygromycin B.
(§2) For high throughput measurement of agonist-evoked increases in intracellular calcium, CHO-K1 cells stably expressing muscarinic receptors were plated in growth medium lacking G418 and hygromycin at 15,000 cells/20 μL/well in Greiner 384-well black-walled, tissue culture (TC)-treated, clear-bottom plates (VWR). Cells were incubated overnight at 37° C. and 5% CO2. The next day, cells were washed using an ELX 405 (BioTek) with four washes (80 μL) of assay buffer then aspirated to 20 μL. Next, 20 μL of 16 μM Fluo-4/acetoxymethyl ester (Invitrogen, Carlsbad, Calif.) prepared as a 2.3 mM stock in DMSO and mixed in a 1:1 ratio with 10% (w/v) Pluronic F-127 and diluted in assay buffer was added to the wells and the cell plates were incubated for 50 min at 37° C. and 5% CO2. Dye was removed by washing with the ELX 405 (four 80 μL washes of assay buffer) then aspirated to 20 μL. Compound master plates were formatted in an 11 point CRC format (1:3 dilutions) in 100% DMSO with a starting concentration of 10 mM using the BRAVO liquid handler (Agilent). Test compound CRCs were then transferred to daughter plates (240 nL) using the Echo acoustic plate reformatter (Labcyte, Sunnyvale, Calif.) and then diluted into assay buffer (40 μL) to a 2× stock using a Thermo Fisher Combi (Thermo Fisher Scientific, Waltham, Mass.).
(§3) Calcium flux was measured using the Functional Drug Screening System (FDSS) 6000 (Hamamatsu Corporation, Tokyo, Japan) as an increase in the fluorescent static ratio. Compounds were applied to cells (20 μL, 2×) using the automated system of the FDSS 6000 at 4 s into the 300 s protocol and the data were collected at 1 Hz. At 144 s into the 300s protocol, 10 μL of an EC20 concentration of the muscarinic receptor agonist acetylcholine was added (5×), followed by the addition of 12 μL an EC80 concentration of acetylcholine at the 230 s time point (5×). Agonist activity was analyzed as a concentration-dependent increase in calcium mobilization upon compound addition. Emax values for agonist activity are expressed relative to the maximum for acetylcholine. Positive allosteric modulator activity was analyzed as a concentration-dependent increase in the EC20 acetylcholine response. Antagonist activity was analyzed as a concentration-dependent decrease in the EC80 acetylcholine response. Concentration-response curves were generated using a four-parameter logistical equation in XLfit curve fitting software (IDBS, Bridgewater, N.J.) for Excel (Microsoft, Redmond, Wash.) or Prism (GraphPad Software, Inc., San Diego, Calif.). […]

[2] = molecular target: T1, human mAChR M1; test: mAChR M1 cell-based functional assay (calcium mobilization), PAM activity: increase in the EC20 acetylcholine response; details: CHO-K1 cells expressing hM1; potentiation of EC20 acetylcholine response
Source text: as §1, §2, §3

Row | Compound | EC50 [1] [µM] | Emax [1] [%] | EC50 [2] [nM] | Emax [2] [%]
1 | Cn1cc2c(-c3cc(F)c(Cn4cc(C(=O)N[C@@H]5CC[C@H]5O)c5occc5c4=O)c(F)c3)cccc2n1 (stereo in doubt) [Compound D21, 5-(2,6-difluoro-4-(2-methyl-2H-indazol-4-yl)benzyl)-N-((1R,2R)-2-hydroxycyclobutyl)-4-oxo-4,5-dihydrofuro[3,2-c]pyridine-7-carboxamide] | > 10 | < 5 | 2190 | 75
2 | Cn1ccc(-c2ccc(Cn3cc(C(=O)NC4CC5(COC5)C4)c4ncccc4c3=O)c(F)c2)n1 [Compound A5, 6-(2-Fluoro-4-(1-methyl-1H-pyrazol-3-yl)benzyl)-5-oxo-N-(2-oxaspiro[3.3]heptan-6-yl)-5,6-dihydro-1,6-naphthyridine-8-carboxamide] | > 10 | < 5 | 2740 | 44
3 | Cn1cc(-c2ccc(Cn3cc(C(=O)N[C@H]4CCOC[C@@H]4O)c4ncccc4c3=O)c(F)c2)cn1 [Compound A6, 6-(2-fluoro-4-(1-methyl-1H-pyrazol-4-yl)benzyl)-N-((3R,4S)-3-hydroxytetrahydro-2H-pyran-4-yl)-5-oxo-5,6-dihydro-1,6-naphthyridine-8-carboxamide] | 8.2 | 23 | 220 | 89
4 | Cn1cc(-c2ccc(Cn3cc(C(=O)N[C@H]4CCCC[C@@H]4O)c4ncccc4c3=O)c(F)c2)cn1 [Compound A7, 6-(2-fluoro-4-(1-methyl-1H-pyrazol-4-yl)benzyl)-N-((1S,2S)-2-hydroxycyclohexyl)-5-oxo-5,6-dihydro-1,6-naphthyridine-8-carboxamide] | – | 12 | 290 | 89
5 | Cn1cc(-c2ccc(Cn3cc(C(=O)N[C@H]4CCC[C@@H]4O)c4ncccc4c3=O)c(F)c2)cn1 [Compound A8, 6-(2-fluoro-4-(1-methyl-1H-pyrazol-4-yl)benzyl)-N-((1S,2S)-2-hydroxycyclopentyl)-5-oxo-5,6-dihydro-1,6-naphthyridine-8-carboxamide] | > 10 | < 5 | 1290 | 83
6 | Cn1cc(-c2ccc(Cn3cc(C(=O)N[C@@H]4CC[C@H]4O)c4ncccc4c3=O)c(F)c2)cn1 [Compound A9, 6-(2-fluoro-4-(1-methyl-1H-pyrazol-4-yl)benzyl)-N-((1R,2R)-2-hydroxycyclobutyl)-5-oxo-5,6-dihydro-1,6-naphthyridine-8-carboxamide] | > 10 | < 5 | 5870 | 65
7 | Cn1cc(-c2ccc(Cn3cc(C(=O)NC4CCOCC4)c4ncccc4c3=O)c(F)c2)cn1 [Compound A10, 6-(2-fluoro-4-(1-methyl-1H-pyrazol-4-yl)benzyl)-5-oxo-N-(tetrahydro-2H-pyran-4-yl)-5,6-dihydro-1,6-naphthyridine-8-carboxamide] | > 10 | < 5 | ≥ 10000 | 59
8 | Cn1cc(-c2ccc(Cn3cc(C(=O)NC4CC5(COC5)C4)c4ncccc4c3=O)c(F)c2)cn1 [Compound A11, 6-(2-fluoro-4-(1-methyl-1H-pyrazol-4-yl)benzyl)-5-oxo-N-(2-oxaspiro[3.3]heptan-6-yl)-5,6-dihydro-1,6-naphthyridine-8-carboxamide] | > 10 | < 5 | 6750 | 58
9 | O=C(N[C@H]1CCOC[C@@H]1O)c1cn(Cc2ccc(-n3cccn3)cc2)c(=O)c2cccnc12 [Compound A12, 6-(4-(1H-pyrazol-1-yl)benzyl)-N-((3R,4S)-3-hydroxytetrahydro-2H-pyran-4-yl)-5-oxo-5,6-dihydro-1,6-naphthyridine-8-carboxamide] | – | 28 | 1390 | 70

Now from value to compound:

Row | EC50 [1] [µM] | Emax [1] [%] | EC50 [2] [nM] | Emax [2] [%] | Compound
10 | > 10 | < 5 | > 10000 | 29 | Cn1cc(-c2ccc(Cn3cc(C(=O)N[C@@H]4CC[C@H]4O)c4occc4c3=O)c(F)c2)cn1 (stereo in doubt) [Compound D15, 5-(2-fluoro-4-(1-methyl-1H-pyrazol-4-yl)benzyl)-N-((1R,2R)-2-hydroxycyclobutyl)-4-oxo-4,5-dihydrofuro[3,2-c]pyridine-7-carboxamide]
11 | 7.9 | 20 | 480 | 90 | Cn1ccc(-c2ccc(Cn3cc(C(=O)N[C@H]4CCOC[C@@H]4O)c4ncccc4c3=O)c(F)c2)n1 [Compound A1, 6-(2-Fluoro-4-(1-methyl-1H-pyrazol-3-yl)benzyl)-N-((3R,4S)-3-hydroxytetrahydro-2H-pyran-4-yl)-5-oxo-5,6-dihydro-1,6-naphthyridine-8-carboxamide]
12 | > 10 | < 5 | 730 | 91 | Cn1ccc(-c2ccc(Cn3cc(C(=O)N[C@H]4CCCC[C@@H]4O)c4ncccc4c3=O)c(F)c2)n1 [Compound A2, 6-(2-fluoro-4-(1-methyl-1H-pyrazol-3-yl)benzyl)-N-((1S,2S)-2-hydroxycyclohexyl)-5-oxo-5,6-dihydro-1,6-naphthyridine-8-carboxamide]
13 | > 10 | < 5 | 1660 | 83 | Cn1ccc(-c2ccc(Cn3cc(C(=O)N[C@H]4CCC[C@@H]4O)c4ncccc4c3=O)c(F)c2)n1 [Compound A3, 6-(2-fluoro-4-(1-methyl-1H-pyrazol-3-yl)benzyl)-N-((1S,2S)-2-hydroxycyclopentyl)-5-oxo-5,6-dihydro-1,6-naphthyridine-8-carboxamide]
14 | > 10 | < 5 | 3450 | 42 | Cn1ccc(-c2ccc(Cn3cc(C(=O)N[C@@H]4CC[C@H]4O)c4ncccc4c3=O)c(F)c2)n1 [Compound A4, 6-(2-fluoro-4-(1-methyl-1H-pyrazol-3-yl)benzyl)-N-((1R,2R)-2-hydroxycyclobutyl)-5-oxo-5,6-dihydro-1,6-naphthyridine-8-carboxamide]
15 | 8.95 | 21 | 1130 | 71 | O=C(N[C@H]1CCCC[C@@H]1O)c1cn(Cc2ccc(-n3cccn3)cc2)c(=O)c2cccnc12 [Compound A13, 6-(4-(1H-pyrazol-1-yl)benzyl)-N-((1S,2S)-2-hydroxycyclohexyl)-5-oxo-5,6-dihydro-1,6-naphthyridine-8-carboxamide]
